The results in this text go back to patent US6677331B2, “Carbapenem derivatives” (Meiji Seika Kaisha, Ltd., priority 1998, dated 2004).

Molecules are shown by their SMILES.

Data set [1] in a line: Test 5: Acute Toxicity (i.v.). Format: in vivo, mice (ICR, male). As to conditions: mice, 1,500 mg/kg i.v. As for the experimental part:
The compounds of Examples 44, 62, 88, and 111 were tested again in the same manner as the above provided that cilastatin sodium was co-administered.

A short description of data set [2]: solubility (remark in the acute toxicity test). Format: physicochemical. As to conditions: reason for the lower i.v. dose.
The next data set concerns S. pneumoniae PRC9. The data set can be described thus: Test 1: Anti-Microbial Activities (MIC). Format: cell-based. As to conditions: Streptococcus pneumoniae; S. pneumoniae PRC9, penicillin-hyperresistant strain (PRSP); Sensitivity Disk agar-N+5% Horse blood; inoculants 10^6 CFU/ml; read-out: minimum inhibiting concentrations (MIC). The method, then: (§1) The minimum inhibiting concentrations (MIC, μg/ml) of the compounds according to the present invention to various pathogenic bacteria was measured in accordance with the method described in CHEMOTHERAPY, vol. 16, No. 1,99, 1968. The culture medium for measurement was Sensitivity Disk agar-N+5% Horse blood, and the amount of inoculants was 10^6 CFU/ml.

The next data set deals with E. faecalis W-73. Briefly: Test 1: Anti-Microbial Activities (MIC). To be noted: Enterococcus faecalis, W73, Sensitivity Disk agar-N+5% Horse blood, inoculants 10^6 CFU/ml, read-out: minimum inhibiting concentrations (MIC). The format is cell-based. The method, then: as §1
Another data set concerns E. hirae ATCC8043. The data set can be described thus: Test 1: Anti-Microbial Activities (MIC). As to conditions: Enterococcus hirae, Sensitivity Disk agar-N+5% Horse blood, inoculants 10^6 CFU/ml, read-out: minimum inhibiting concentrations (MIC). Format: cell-based. As for the experimental part:
as §1

Another data set concerns S. aureus 209P JC-1. Briefly: Test 1: Anti-Microbial Activities (MIC). Format: cell-based. As to conditions: Staphylococcus aureus, Sensitivity Disk agar-N+5% Horse blood, inoculants 10^6 CFU/ml, read-out: minimum inhibiting concentrations (MIC). The method, then: as §1
The subject of another data set is C. freundii GN346. The data set can be described thus: Test 1: Anti-Microbial Activities (MIC). Format: cell-based. To be noted: Citrobacter freundii, Sensitivity Disk agar-N+5% Horse blood, inoculants 10^6 CFU/ml, read-out: minimum inhibiting concentrations (MIC). As for the experimental part:
as §1

In a further data set the test system is M. catarrhalis W-0500. The data set can be described thus: Test 1: Anti-Microbial Activities (MIC). The format is cell-based. As to conditions: Moraxella catarrhalis, W0500, Sensitivity Disk agar-N+5% Horse blood, inoculants 10^6 CFU/ml, read-out: minimum inhibiting concentrations (MIC). The method, then: as §1
Another data set concerns H. influenzae PRC44. Briefly: Test 1: Anti-Microbial Activities (MIC). As to conditions: Haemophilus influenzae, Sensitivity Disk agar-N+5% Horse blood, inoculants 10^6 CFU/ml, read-out: minimum inhibiting concentrations (MIC). Format: cell-based. As for the experimental part: as §1
A further data set deals with E. coli NIHJ JC-2. Briefly: Test 1: Anti-Microbial Activities (MIC). The format is cell-based. To be noted: Escherichia coli, NIHJJC2, Sensitivity Disk agar-N+5% Horse blood, inoculants 10^6 CFU/ml, read-out: minimum inhibiting concentrations (MIC). The method, then:
as §1

Another data set deals with P. vulgaris GN7919. Briefly: Test 1: Anti-Microbial Activities (MIC). Format: cell-based. To be noted: Proteus vulgaris, Sensitivity Disk agar-N+5% Horse blood, inoculants 10^6 CFU/ml, read-out: minimum inhibiting concentrations (MIC). As for the experimental part: as §1
The subject of a further data set is S. epidermidis ATCC14990. The data set can be described thus: Test 1: Anti-Microbial Activities (MIC). To be noted: Staphylococcus epidermidis, Sensitivity Disk agar-N+5% Horse blood, inoculants 10^6 CFU/ml, read-out: minimum inhibiting concentrations (MIC). The format is cell-based. As for the experimental part:
as §1

The next data set relates to K. pneumoniae PCI602. The data set can be described thus: Test 1: Anti-Microbial Activities (MIC). Format: cell-based. To be noted: Klebsiella pneumoniae, Sensitivity Disk agar-N+5% Horse blood, inoculants 10^6 CFU/ml, read-out: minimum inhibiting concentrations (MIC). As for the experimental part:
as §1

The test system of the next data set is H. influenzae PRC2. Briefly: Test 1: Anti-Microbial Activities (MIC). Format: cell-based. To be noted: Haemophilus influenzae, Sensitivity Disk agar-N+5% Horse blood, inoculants 10^6 CFU/ml, read-out: minimum inhibiting concentrations (MIC). As for the experimental part: as §1
A further data set deals with S. aureus M126. The data set can be described thus: Test 1: Anti-Microbial Activities (MIC). The format is cell-based. As to conditions: Staphylococcus aureus; S. aureus M126, methicillin-hyperresistant strain (MRSA); Sensitivity Disk agar-N+5% Horse blood; inoculants 10^6 CFU/ml; read-out: minimum inhibiting concentrations (MIC). As for the experimental part:
as §1

In the case of `CSc1ncn2cc(C3=C(C(=O)[O-])N4C(=O)[C@H]([C@@H](C)O)[C@H]4[C@H]3C)sc12.[Na+]` [Example 111, Sodium (1S,5R,6S)-6-((1R)-1-Hydroxyethyl)-1-methyl-2-(7-methylthioimidazo[5,1-b]thiazol-2-yl)-1-carbapen-2-em-3-carboxylate], the “survival (acute toxicity)” value in data set [1] and in data set [1] (cilastatin sodium co-administered) was “All of the animal survived” throughout. Also, in data set [2], the solubility result is on record as “limited solubility”. For the same molecule, the MIC is 0.05 µg/mL in the data set on S. pneumoniae PRC9; 0.2 µg/mL in the data set with E. faecalis W-73; 0.39 µg/mL in the data set with E. hirae ATCC8043; less than 0.025 µg/mL in the data set with S. aureus 209P JC-1; 1.56 µg/mL in the data set on C. freundii GN346; less than 0.025 µg/mL with M. catarrhalis W-0500. Besides, the MIC in the data set on H. influenzae PRC44 is 0.05 µg/mL; with E. coli NIHJ JC-2, 0.78 µg/mL; in the data set with P. vulgaris GN7919 it was 0.39 µg/mL; with S. epidermidis ATCC14990, less than 0.025 µg/mL; in the data set with K. pneumoniae PCI602 it was 0.78 µg/mL; in the data set on H. influenzae PRC2, less than 0.025 µg/mL. For the same molecule, the MIC in the data set with S. aureus M126 came to 1.56 µg/mL.
